From patent US20100292231A1, “Indazole Compounds for Treating Inflammatory Disorders, Demyelinating Disorders and Cancers” (priority 2007, published 2010)

Assays:
Test in all cases: SelectScreen kinase specificity survey
Assay type in all cases: biochemical
Conditions in all cases: estimated, abridged dose response curve, read-out: Kinase inhibitory activity EC50
PRKCA (PKC alpha) = target: T1, PRKCA (PKC alpha) (Homo sapiens, UniProt P17252)
T1 construct: purchased Invitrogen (SelectScreen platform)
Method in brief: (§1)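 In a 230-member panel spanning all kinase classes, phosphorylation of kinase-specific substrates at 100 micromolar ATP was read optically. Estimated EC50s came from abridged five-increment titrations fitted to a Hill equation with four parameters.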

SYK = target: T2, SYK (Homo sapiens, UniProt P43405)
T2 construct: purchased Invitrogen (SelectScreen)
Method in brief: as §1

NEK4 = target: T3, NEK4 (Homo sapiens, UniProt P51957)
T3 construct: purchased Invitrogen, Inc. (SelectScreen service)
T3 sequence (P51957 whole entry): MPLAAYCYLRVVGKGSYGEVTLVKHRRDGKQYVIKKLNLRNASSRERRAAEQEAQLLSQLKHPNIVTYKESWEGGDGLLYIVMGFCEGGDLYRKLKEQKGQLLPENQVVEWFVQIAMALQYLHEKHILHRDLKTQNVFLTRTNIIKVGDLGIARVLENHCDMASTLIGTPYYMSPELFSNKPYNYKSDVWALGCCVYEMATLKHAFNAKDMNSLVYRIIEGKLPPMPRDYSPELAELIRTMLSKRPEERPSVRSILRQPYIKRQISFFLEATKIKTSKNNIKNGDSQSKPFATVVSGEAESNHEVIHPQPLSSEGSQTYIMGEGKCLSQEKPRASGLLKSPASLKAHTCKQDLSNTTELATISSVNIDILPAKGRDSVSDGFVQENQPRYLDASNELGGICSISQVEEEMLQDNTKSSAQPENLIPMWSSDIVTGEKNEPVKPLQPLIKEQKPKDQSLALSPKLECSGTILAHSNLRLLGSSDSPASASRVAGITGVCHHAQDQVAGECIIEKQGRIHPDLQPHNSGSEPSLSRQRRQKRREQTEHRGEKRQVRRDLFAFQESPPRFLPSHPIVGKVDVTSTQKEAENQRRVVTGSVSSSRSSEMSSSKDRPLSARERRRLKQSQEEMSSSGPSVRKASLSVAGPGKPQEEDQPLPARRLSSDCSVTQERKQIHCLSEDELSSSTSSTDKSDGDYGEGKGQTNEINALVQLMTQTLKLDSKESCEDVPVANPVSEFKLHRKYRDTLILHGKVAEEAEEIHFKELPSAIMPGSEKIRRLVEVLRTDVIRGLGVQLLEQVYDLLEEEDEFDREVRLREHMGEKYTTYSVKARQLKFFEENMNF
Method in brief: as §1

MAPKAPK3 = target: T4, MAPKAPK3 (Homo sapiens, UniProt Q16644)
T4 construct: purchased Invitrogen, Inc. (SelectScreen platform)
Method in brief: as §1

PRKX = target: T5, PRKX (Homo sapiens, UniProt P51817)
T5 construct: purchased Invitrogen (SelectScreen platform)
Method in brief: as §1

CDK5/p35 = target: T6, CDK5/p35 (Homo sapiens, UniProt Q00535)
T6 construct: purchased Invitrogen (SelectScreen platform)
T6 sequence (Q00535 whole entry): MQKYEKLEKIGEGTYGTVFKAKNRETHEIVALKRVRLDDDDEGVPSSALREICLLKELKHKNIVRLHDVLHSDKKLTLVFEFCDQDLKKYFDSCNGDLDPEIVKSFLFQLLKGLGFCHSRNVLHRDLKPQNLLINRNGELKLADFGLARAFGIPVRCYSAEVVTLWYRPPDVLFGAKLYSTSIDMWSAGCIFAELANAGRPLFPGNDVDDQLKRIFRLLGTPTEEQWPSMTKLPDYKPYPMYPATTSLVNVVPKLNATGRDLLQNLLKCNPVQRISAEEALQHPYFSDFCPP
T6 sequence (Q15078 2-307 partner limits assumed): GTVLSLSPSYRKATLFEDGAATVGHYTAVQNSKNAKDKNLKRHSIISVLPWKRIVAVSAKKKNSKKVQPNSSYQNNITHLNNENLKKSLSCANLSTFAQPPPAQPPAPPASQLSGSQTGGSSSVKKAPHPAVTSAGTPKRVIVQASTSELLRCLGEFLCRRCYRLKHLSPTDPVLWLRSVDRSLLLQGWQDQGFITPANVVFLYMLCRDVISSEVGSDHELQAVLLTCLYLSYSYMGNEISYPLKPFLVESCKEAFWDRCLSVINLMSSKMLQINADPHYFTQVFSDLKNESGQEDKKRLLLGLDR
Method in brief: as §1

STK22D (TSSK1) = target: T7, STK22D (TSSK1) (Homo sapiens, UniProt Q9BXA7)
T7 construct: purchased Invitrogen, Inc. (SelectScreen platform)
T7 sequence (Q9BXA7 whole entry): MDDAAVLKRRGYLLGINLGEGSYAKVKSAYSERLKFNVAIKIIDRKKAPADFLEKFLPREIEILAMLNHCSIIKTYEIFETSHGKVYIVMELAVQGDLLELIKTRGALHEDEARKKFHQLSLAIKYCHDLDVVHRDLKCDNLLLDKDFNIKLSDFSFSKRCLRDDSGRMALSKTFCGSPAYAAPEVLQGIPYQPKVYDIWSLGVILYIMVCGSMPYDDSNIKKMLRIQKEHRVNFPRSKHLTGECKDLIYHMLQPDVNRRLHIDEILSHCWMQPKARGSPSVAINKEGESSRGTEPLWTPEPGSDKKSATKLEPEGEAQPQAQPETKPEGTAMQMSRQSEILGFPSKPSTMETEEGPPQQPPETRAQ
Method in brief: as §1

AURKB (Aurora B) = target: T8, AURKB (Aurora B) (Homo sapiens, UniProt Q96GD4)
T8 construct: purchased Invitrogen, Inc. (SelectScreen service)
Method in brief: as §1

YES1 (YES) = target: T9, YES1 (YES) (Homo sapiens, UniProt P07947)
T9 construct: purchased Invitrogen (SelectScreen)
T9 sequence (P07947 whole entry): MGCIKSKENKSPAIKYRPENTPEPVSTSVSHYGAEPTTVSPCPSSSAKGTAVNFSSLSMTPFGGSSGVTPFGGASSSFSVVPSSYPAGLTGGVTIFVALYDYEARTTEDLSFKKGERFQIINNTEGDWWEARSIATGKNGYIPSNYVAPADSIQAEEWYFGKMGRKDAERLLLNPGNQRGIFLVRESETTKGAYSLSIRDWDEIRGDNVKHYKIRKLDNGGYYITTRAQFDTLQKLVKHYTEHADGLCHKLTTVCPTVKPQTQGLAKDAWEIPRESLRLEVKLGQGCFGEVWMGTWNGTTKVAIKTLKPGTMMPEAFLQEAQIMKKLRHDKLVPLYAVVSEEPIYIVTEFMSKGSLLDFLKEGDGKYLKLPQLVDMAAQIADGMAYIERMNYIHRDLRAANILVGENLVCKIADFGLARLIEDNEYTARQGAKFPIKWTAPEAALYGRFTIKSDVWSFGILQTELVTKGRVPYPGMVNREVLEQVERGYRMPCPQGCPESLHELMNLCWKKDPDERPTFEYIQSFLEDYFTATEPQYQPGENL
Method in brief: as §1

CDK1/cyclin B (CDC2) = target: T10, CDK1/cyclin B (CDC2) (Homo sapiens, UniProt P06493)
T10 construct: purchased Invitrogen (SelectScreen platform)
Method in brief: as §1

RET V804L = target: T11, RET V804L (Homo sapiens, UniProt P07949, V804L)
T11 construct: purchased Invitrogen (SelectScreen)
Method in brief: as §1

MAPK9 (JNK2) = target: T12, MAPK9 (JNK2) (Homo sapiens, UniProt P45984)
T12 construct: purchased Invitrogen, Inc. (SelectScreen service)
Method in brief: as §1

TBK1 = target: T13, TBK1 (Homo sapiens, UniProt Q9UHD2)
T13 construct: purchased Invitrogen, Inc. (SelectScreen service)
T13 sequence (Q9UHD2 whole entry): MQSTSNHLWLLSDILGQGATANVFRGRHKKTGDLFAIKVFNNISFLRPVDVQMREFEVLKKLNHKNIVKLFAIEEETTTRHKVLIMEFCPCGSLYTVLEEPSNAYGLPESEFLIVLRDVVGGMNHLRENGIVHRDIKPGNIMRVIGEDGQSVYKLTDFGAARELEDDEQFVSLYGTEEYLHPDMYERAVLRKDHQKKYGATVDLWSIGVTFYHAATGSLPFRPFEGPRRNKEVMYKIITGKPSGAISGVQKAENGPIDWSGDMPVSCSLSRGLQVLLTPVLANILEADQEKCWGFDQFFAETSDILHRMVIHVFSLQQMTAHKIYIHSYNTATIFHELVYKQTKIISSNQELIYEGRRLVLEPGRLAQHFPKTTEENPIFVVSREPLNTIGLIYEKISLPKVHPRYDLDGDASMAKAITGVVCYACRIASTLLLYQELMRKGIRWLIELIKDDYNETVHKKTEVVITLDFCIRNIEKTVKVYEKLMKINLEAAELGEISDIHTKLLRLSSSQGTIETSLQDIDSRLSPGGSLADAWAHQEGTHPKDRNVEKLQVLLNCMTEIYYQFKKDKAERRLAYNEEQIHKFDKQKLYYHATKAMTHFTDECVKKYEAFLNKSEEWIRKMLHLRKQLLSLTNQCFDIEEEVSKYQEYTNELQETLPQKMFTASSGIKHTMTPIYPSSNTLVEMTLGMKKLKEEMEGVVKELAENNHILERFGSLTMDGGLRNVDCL
Method in brief: as §1

EPHA4 = target: T14, EPHA4 (Homo sapiens, UniProt P54764)
T14 construct: purchased Invitrogen (SelectScreen service)
Method in brief: as §1

HCK = target: T15, HCK (Homo sapiens, UniProt P08631)
T15 construct: purchased Invitrogen (SelectScreen)
Method in brief: as §1

CSNK1G3 (CK1 gamma 3) = target: T16, CSNK1G3 (CK1 gamma 3) (Homo sapiens, UniProt Q9Y6M4)
T16 construct: purchased Invitrogen (SelectScreen platform)
Method in brief: as §1

IRAK4 = target: T17, IRAK4 (Homo sapiens, UniProt Q9NWZ3)
T17 construct: purchased Invitrogen, Inc. (SelectScreen platform)
Method in brief: as §1

CAMK2B (CaMKII beta) = target: T18, CAMK2B (CaMKII beta) (Homo sapiens, UniProt Q13554)
T18 construct: purchased Invitrogen, Inc. (SelectScreen platform)
Method in brief: as §1

CSNK1E (CK1 epsilon) = target: T19, CSNK1E (CK1 epsilon) (Homo sapiens, UniProt P49674)
T19 construct: purchased Invitrogen (SelectScreen platform)
T19 sequence (P49674 whole entry): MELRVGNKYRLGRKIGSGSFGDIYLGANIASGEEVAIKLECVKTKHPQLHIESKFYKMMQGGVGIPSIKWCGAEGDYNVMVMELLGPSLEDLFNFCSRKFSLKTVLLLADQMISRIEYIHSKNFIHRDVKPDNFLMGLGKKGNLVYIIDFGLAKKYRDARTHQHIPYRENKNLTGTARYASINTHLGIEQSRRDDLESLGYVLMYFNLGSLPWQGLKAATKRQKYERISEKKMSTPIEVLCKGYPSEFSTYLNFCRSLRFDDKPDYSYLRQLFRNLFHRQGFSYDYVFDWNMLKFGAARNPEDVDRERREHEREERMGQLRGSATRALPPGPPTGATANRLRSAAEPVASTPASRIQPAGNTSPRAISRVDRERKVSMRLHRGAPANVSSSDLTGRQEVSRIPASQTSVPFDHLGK
Method in brief: as §1

SRC = target: T20, SRC (Homo sapiens, UniProt P12931)
T20 construct: purchased Invitrogen (SelectScreen)
T20 sequence (P12931 whole entry): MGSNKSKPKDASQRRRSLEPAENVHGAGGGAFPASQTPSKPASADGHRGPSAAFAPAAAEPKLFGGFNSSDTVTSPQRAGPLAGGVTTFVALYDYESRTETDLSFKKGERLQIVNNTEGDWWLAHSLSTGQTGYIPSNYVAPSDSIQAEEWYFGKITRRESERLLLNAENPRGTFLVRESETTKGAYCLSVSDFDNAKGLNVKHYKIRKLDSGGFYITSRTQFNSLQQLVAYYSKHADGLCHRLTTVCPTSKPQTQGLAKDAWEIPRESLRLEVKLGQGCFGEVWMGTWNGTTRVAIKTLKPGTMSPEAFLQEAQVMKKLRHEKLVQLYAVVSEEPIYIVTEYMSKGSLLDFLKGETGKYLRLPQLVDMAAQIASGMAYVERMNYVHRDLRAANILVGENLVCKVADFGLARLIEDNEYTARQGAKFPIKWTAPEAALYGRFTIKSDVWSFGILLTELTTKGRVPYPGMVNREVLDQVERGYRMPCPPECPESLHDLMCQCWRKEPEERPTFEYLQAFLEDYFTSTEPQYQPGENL
Method in brief: as §1

AKT2 (PKB beta) = target: T21, AKT2 (PKB beta) (Homo sapiens, UniProt P31751)
T21 construct: purchased Invitrogen (SelectScreen platform)
Method in brief: as §1

MET (cMet) = target: T22, MET (cMet) (Homo sapiens, UniProt P08581)
T22 construct: purchased Invitrogen (SelectScreen platform)
Method in brief: as §1

RPS6KB1 (p70S6K) = RPS6KB1 (p70S6K) (Homo sapiens, UniProt P23443)
RPS6KB1 (p70S6K), sequence (P23443 91-352 limits assumed): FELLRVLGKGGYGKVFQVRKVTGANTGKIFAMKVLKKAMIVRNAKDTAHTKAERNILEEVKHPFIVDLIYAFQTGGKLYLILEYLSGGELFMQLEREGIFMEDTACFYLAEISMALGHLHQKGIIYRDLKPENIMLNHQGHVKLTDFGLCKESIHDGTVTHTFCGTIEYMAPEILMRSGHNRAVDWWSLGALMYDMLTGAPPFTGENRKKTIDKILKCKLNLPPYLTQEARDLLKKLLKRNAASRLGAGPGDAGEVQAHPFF
Method in brief: as §1

PRKCZ (PKC zeta) = target: T23, PRKCZ (PKC zeta) (Homo sapiens, UniProt Q05513)
T23 construct: purchased Invitrogen, Inc. (SelectScreen platform)
Method in brief: as §1

ABL1 G250E = target: T24, ABL1 G250E (Homo sapiens, UniProt P00519, G250E)
T24 construct: purchased Invitrogen (SelectScreen platform)
Method in brief: as §1

MAPKAPK2 = target: T25, MAPKAPK2 (Homo sapiens, UniProt P49137)
T25 construct: purchased Invitrogen, Inc. (SelectScreen platform)
Method in brief: as §1

KIT = target: T26, KIT (Homo sapiens, UniProt P10721)
T26 construct: purchased Invitrogen (SelectScreen platform)
Method in brief: as §1

PDGFRA T674I = target: T27, PDGFRA T674I (Homo sapiens, UniProt P16234, T674I)
T27 construct: purchased Invitrogen (SelectScreen platform)
Method in brief: as §1

| Structure (SMILES) | EC50 (PRKCA (PKC alpha)) [µM] | EC50 (SYK) [µM] | EC50 (NEK4) [µM] | EC50 (MAPKAPK3) [µM] | EC50 (PRKX) [µM] | EC50 (CDK5/p35) [µM] | EC50 (STK22D (TSSK1)) [µM] | EC50 (AURKB (Aurora B)) [µM] | EC50 (YES1 (YES)) [µM] | EC50 (CDK1/cyclin B (CDC2)) [µM] | EC50 (RET V804L) [µM] | EC50 (MAPK9 (JNK2)) [µM] | EC50 (TBK1) [µM] | EC50 (EPHA4) [µM] | EC50 (HCK) [µM] | EC50 (CSNK1G3 (CK1 gamma 3)) [µM] | EC50 (IRAK4) [µM] | EC50 (CAMK2B (CaMKII beta)) [µM] | EC50 (CSNK1E (CK1 epsilon)) [µM] | EC50 (SRC) [µM] | other results |
| --- | --- | --- | --- | --- | --- | --- | --- | --- | --- | --- | --- | --- | --- | --- | --- | --- | --- | --- | --- | --- | --- |
| CN(C)CCCNc1ccc2ncn3c4ccc5[nH]ncc5c4c(=O)c1c23 [Compound (IV)] | > 5 | > 5 | > 5 | > 5 | 1.4 | 2.8 | 2.02 | > 5 | 1.57 | 3.95 | 0.864 | > 5 | > 5 | > 5 | 2.28 | > 5 | 3.32 | > 5 | > 5 | 0.437 | EC50 (AKT2 (PKB beta)): > 5 µM; EC50 (MET (cMet)): > 5 µM; EC50 (RPS6KB1 (p70S6K)): 2.37 µM; EC50 (PRKCZ (PKC zeta)): > 5 µM; EC50 (ABL1 G250E): 4.05 µM; EC50 (MAPKAPK2): > 5 µM; EC50 (KIT): 1.1 µM; EC50 (PDGFRA T674I): > 5 µM |
| CCN(CC)CCNc1ccc2ncn3c4ccc(O)cc4c(=O)c1c23 [Symadex, 5-(2-(diethylamino)ethylamino)-8-hydroxy-6H-imidazo[4,5,1-de]acridin-6-one, reference compound] | > 5 | 3.91 | > 5 | > 5 | 3.56 | > 5 | 1.95 | > 5 | > 5 | > 5 | 0.735 | > 5 | > 5 | > 5 | 3.98 | > 5 | 0.847 | > 5 | 1.09 | 4.41 | EC50 (AKT2 (PKB beta)): > 5 µM; EC50 (MET (cMet)): > 5 µM; EC50 (RPS6KB1 (p70S6K)): > 5 µM; EC50 (PRKCZ (PKC zeta)): > 5 µM; EC50 (ABL1 G250E): > 5 µM; EC50 (MAPKAPK2): > 5 µM; EC50 (KIT): 2.25 µM; EC50 (PDGFRA T674I): > 5 µM |
